The nature of series [1]: GC-MS analysis of culture media incubated with drugs in the absence of cells. The series is classed as physicochemical.
The subject of series [2] is human dermal fibroblasts (CRL-2097). The series can be described thus: Resazurin viability assay of human dermal fibroblasts. The note with it: for change in fibroblast viability: 50 µM. Background: The colour change of resazurin is a common sign of viable cells or microbes.
Protocol: (§1) DMSO and water were the solvent controls for the artemisinic compounds and teas, respectively. Fibroblasts (passages 10–14) were seeded in 6-well plates in 2 mL medium at a density of 6250 cells/cm^2. After overnight attachment, media were aspirated and replaced with test drugs in growth media at the indicated concentrations and incubated at 37 °C and 5% CO2 in high humidity.
(§2) After 1 or 4 d of treatment, media were aspirated and replaced with media containing resazurin (Thermo Fisher Scientific B21187.03) at a final concentration of 25 µg/mL (stock solution 0.15 mg/mL in DPBS). […] Fluorescence readings were normalized to the appropriate solvent controls.
Series [3] has as its system smooth-muscle α-actin (α-SMA). The series is described as follows: Immunofluorescence staining for α-SMA in treated fibroblasts. It is filed as cell-based, human. Particulars: 4 d treatment, 50 µM drug or tea (A. afra 1/4X). From the text: After 1 and 4 d, cells were fixed with paraformaldehyde and stained for immunofluorescence using primary mouse anti-α-SMA (Santa Cruz Biotechnology, Dallas, TX, USA, sc-32251) and secondary goat anti-mouse IgG AlexaFluor488-conjugated antibodies (Thermo Fisher Scientific A-11001), and DNA was counterstained with Hoechst 33342 as previously described.

The subject of series [4] is human dermal fibroblasts (CRL-2097). The note with it: 50 µM.
Protocol: as §1, §2
Series [5] deals with ACTA2, COL1A1, COL3A1, TGFB1, TGFB2, TGFBR1, MMP1, and MMP3. The series can be described thus: qRT-PCR gene expression in drug-treated fibroblasts: panel of fibrosis-related marker genes. The series is classed as cell-based, human. Particulars: 4 d treatment; 50 µM. On the procedure: Drug treatments were performed as follows. […] RNA from cells after 4 d of drug treatment was isolated using the NucleoSpin RNA/protein mini kit (Macherey-Nagel, Allentown, PA, USA, 740933.50) according to the manufacturer’s instructions. The concentration of isolated RNA was measured using a Nanodrop 2000c Spectrophotometer (Thermo Scientific). […] A SYBR-based PowerTrack master mix (Thermo Fisher Scientific A46012) was used to perform RT-qPCR on a QuantStudio 6 Pro Real-Time PCR system (Thermo Fisher Scientific) in 10 μL reactions. The thermal protocol was as follows: 95 °C for 2 min, then 40 cycles of 95 °C for 15 s and 60 °C for 60 s. PCR primer sequences are listed in Table 2 and were the same as used in Larson et al., 2019 [17]. Fold change in gene expression was determined using the ΔΔCT method with GAPDH as the housekeeping gene.

Another series deals with MMP1. The series is described as follows: qRT-PCR gene expression in drug-treated fibroblasts: MMP1. It is filed as cell-based, human. The note with it: 4 d treatment; 50 µM; GAPDH internal control. A general note: In qPCR the cycle at which signal appears reflects the starting amount.
A short description of series [6]: Thin-layer chromatography of media from drug-treated fibroblasts. The series is classed as in vitro ADME, human. Particulars: fibroblast cultures, 50 µM.
Protocol: Media were extracted 1:1 with dichloromethane overnight, after which the solvent was separated and dried. Extracts (equivalent to 1 mL media) were resuspended in dichloromethane, spotted on Si-gel 60 F254 plates (EMD Millipore, Burlington, MA, USA, cat #1.05735.0001), and run in a mobile phase of 5:11:4 dichloromethane–hexane–acetone plus 0.5% v/v acetic acid. Plates were stained with p-anisaldehyde reagent (75 mL ethanol, 2.5 mL sulfuric acid, 1 mL acetic acid, and 2 mL p-anisaldehyde (Sigma Aldrich, St. Louis, MO, USA, A88107-100G)) and heated for 10 min at 105 °C.
A further series concerns TGFB2. The series is described as follows: qRT-PCR gene expression in drug-treated fibroblasts: TGFB2. It is filed as cell-based, human. Particulars: 4 d treatment; 50 µM; GAPDH internal control.
Another series relates to TGFBR1. The series can be described thus: qRT-PCR gene expression in drug-treated fibroblasts: TGFBR1. The series is classed as cell-based, human. Particulars: 4 d treatment; 50 µM; GAPDH internal control.
For the next series, the system named is MMP3. The series is described as follows: qRT-PCR gene expression in drug-treated fibroblasts: MMP3. The series is classed as cell-based, human. Particulars: 4 d treatment; 50 µM; GAPDH internal control.
The mark [7] stands for this setting: cell-free culture media incubated 4 days, 50 µM ART drugs, GC-MS.
[8] abbreviates: cell-free culture media, 50 µM ART drugs, GC-MS.
Setting [9] is: 1 d treatment, 50 µM drug or tea normalized to 50 µM ART, % of solvent control.

Structures are written as SMILES. Like-named read-outs stand apart in the source and are kept apart here.

In the case of `C[C@H]1[C@H](OC(=O)CCC(=O)O)O[C@@H]2O[C@@]3(C)CC[C@H]4[C@H](C)CC[C@@H]1[C@@]24OO3` [AS, artesunate], the “concentration of dART in culture media, Day 4” value (shortened to “concentration of dART … Day 4”) in series [1] (setting [7]) turned out to be 1500 ng/mL. The “concentration of dART in culture media, Day 0” value (shortened to “concentration of dART … Day 0”) in series [1] (setting [8]) stood at 0 ng/mL. Also, the “decrease in fibroblast viability” value in series [2] (setting [9]) is listed as ~35%. In [3], the “α-SMA staining compared to solvent control” value is listed as “considerably decreased”.

As to `CO[C@H]1O[C@@H]2O[C@@]3(C)CC[C@H]4[C@H](C)CC[C@@H]([C@H]1C)[C@@]24OO3` [AM, artemether], in series [4], the “change in fibroblast viability” value was “no significant change”.

For the compound `C[C@@H]1CC[C@H]2[C@@H](C)C(=O)O[C@@H]3O[C@@]4(C)CC[C@@H]1[C@]32O4` [dART, deoxyartemisinin], the “change in fibroblast viability” value in [2] (4 d treatment, vs control) is “no change”.

As for `C[C@@H]1CC[C@H]2[C@@H](C)C(=O)O[C@@H]3O[C@@]4(C)CC[C@@H]1[C@]32OO4` [ART, artemisinin], the “concentration of dART … Day 4” value in series [1] (setting [7]) turned out to be 500 ng/mL. The “concentration of the treatment drug (ART for the tea) in culture media, Day 4” value in series [1] (cell-free culture media incubated 4 days, 50 µM ART drugs, GC-MS, ND = not detected) was 420 ng/mL. The “concentration of dART … Day 0” value in series [1] (setting [8]) was 0 ng/mL. For the same compound, in [1] (day 4, cell-free culture media), the ART disappeared is reported as > 99%. For the same compound, in [5], the “effects on the expressions of other markers (other than MMP1)” value is listed as “lacked effects”. For the same compound, in series [2] (1 d exposure, vs solvent control), the “change in fibroblast viability” value is given as “no significant change”. In addition, the “decrease in fibroblast viability” value in series [2] (4 d treatment, 50 µM drug or tea infusion, % of respective control) was “about 20%”. Moreover, the “α-SMA staining compared to solvent control” value in series [3] was “substantial increase”.

Turning to `C[C@H]1[C@@H](O)O[C@@H]2O[C@@]3(C)CC[C@H]4[C@H](C)CC[C@@H]1[C@@]24OO3` [DHA, dihydroartemisinin], the “increase in MMP1 expression, fold change vs. solvent control” value with MMP1 is 8 fold. Moreover, the “treatment drug remaining in media (TLC)” value in series [6] (after day 1) is “nearly gone”. Further, in [6] (day 4), the “dART in media (TLC)” value is listed as “observed” and the “treatment drug (ART for the tea) remaining in media (TLC)” value is “undetectable”. Also, the “decrease in TGFB2 expression, fold change vs. solvent control” value with TGFB2 is listed as 3.7 fold. In series [1] (setting [7]), the “concentration of dART … Day 4” value came to 6900 ng/mL. Further, in [1] (setting [8]), the “concentration of dART … Day 0” value is 0 ng/mL. The “decrease in fibroblast viability” value in series [2] (setting [9]) is given as ~45%. Besides, the “α-SMA staining compared to solvent control” value in series [3] is listed as “considerably decreased”. Besides, the “decrease in TGFBR1 expression, fold change vs. solvent control” value in the series on TGFBR1 amounted to 4 fold. The “increase in MMP3 expression, fold change vs. solvent control” value in the series on MMP3 is reported as 51.8 fold.

The record behind these values is article PMC11085156 (Molecules, 2024).
